Literature values in patent publication US10201577B2, “Compositions and methods for enhancing working and long-term memory support using new combination of ginkgo biloba and panax ginseng and associated components” (KEYVIEW LABS, INC., priority 2017, dated 2019).

What was measured:
[1] = in vivo, po
[2] = biological target: T1, choline acetyltransferase (Homo sapiens, UniProt P28329); settings: isolated Rb1
T1 sequence (P28329 1-748): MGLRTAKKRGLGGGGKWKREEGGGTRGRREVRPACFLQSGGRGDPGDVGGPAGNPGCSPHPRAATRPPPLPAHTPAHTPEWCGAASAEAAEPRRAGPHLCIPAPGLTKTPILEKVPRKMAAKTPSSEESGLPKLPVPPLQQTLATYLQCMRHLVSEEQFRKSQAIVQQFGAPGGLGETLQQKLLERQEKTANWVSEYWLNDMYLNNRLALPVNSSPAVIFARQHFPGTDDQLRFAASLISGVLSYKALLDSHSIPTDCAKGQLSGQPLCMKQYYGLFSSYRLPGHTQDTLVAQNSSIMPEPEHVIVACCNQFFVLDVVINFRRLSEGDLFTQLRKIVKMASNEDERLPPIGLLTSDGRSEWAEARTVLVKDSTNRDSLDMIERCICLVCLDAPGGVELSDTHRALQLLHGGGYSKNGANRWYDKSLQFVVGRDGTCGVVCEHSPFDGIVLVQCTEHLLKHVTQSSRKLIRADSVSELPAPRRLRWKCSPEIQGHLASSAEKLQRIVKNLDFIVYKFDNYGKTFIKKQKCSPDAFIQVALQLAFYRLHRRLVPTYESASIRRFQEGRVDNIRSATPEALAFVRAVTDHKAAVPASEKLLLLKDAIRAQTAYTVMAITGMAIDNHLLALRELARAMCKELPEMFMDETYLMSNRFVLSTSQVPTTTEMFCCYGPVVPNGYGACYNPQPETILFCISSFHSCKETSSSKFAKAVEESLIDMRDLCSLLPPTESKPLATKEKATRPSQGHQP

acetylcholine release = settings: isolated Rb1
[3] = tested on: long term potentiation (LTP); settings: in vivo

Row | elimination half-life [1] [h] | time of peak plasma level [1] | choline acetyltransferase activity [2] | SMILES | acetylcholine release (acetylcholine release) | long term potentiation (LTP) [3]
1 | 4.31 ± 0.49 | around 2.25±0.45 hours |  | CC1C(=O)OC2C(O)C34C5CC(C(C)(C)C)C36C(OC(=O)C6O)OC4(C(=O)O5)C12O (centres unmarked) [Ginkgolide B] |  | 
2 |  |  | stimulates | CC(C)=CCC[C@](C)(O[C@@H]1O[C@H](CO[C@@H]2O[C@H](CO)[C@@H](O)[C@H](O)[C@H]2O)[C@@H](O)[C@H](O)[C@H]1O)[C@H]1CC[C@]2(C)[C@@H]1[C@H](O)C[C@@H]1[C@@]3(C)CC[C@H](O[C@@H]4O[C@H](CO)[C@@H](O)[C@H](O)[C@H]4O[C@@H]4O[C@H](CO)[C@@H](O)[C@H](O)[C@H]4O)C(C)(C)[C@@H]3CC[C@]12C [Rb1] | stimulates | capable of in vivo modulation
